Laboratory results reported in ChEMBL document CHEMBL1833798, “Coprismycins A and B, neuroprotective phenylpyridines from the dung beetle-associated bacterium, Streptomyces sp” (Bioorg Med Chem Lett, 2011).

Legend:
SH-SY5Y [1] = assay: Cytotoxicity against human SH-SY5Y cells assessed as cell viability at 1 to 5 uM after 24 hrs; type: cell-based
SH-SY5Y [2] = assay: Neuroprotective activity against MPP-induced neurotoxicity in human SH-SY5Y cells assessed as increase in cell viability at 5 uM pretreated for 2 hrs before MPP challenge measured after 48 hrs relative to control; type: functional
SH-SY5Y [3] = assay: Neuroprotective activity against MPP-induced neurotoxicity in human SH-SY5Y cells assessed as increase in cell viability pretreated for 2 hrs before MPP challenge measured after 48 hrs; type: functional, cell-based
HCT-116 = assay: Cytotoxicity against human HCT116 cells assessed as inhibition of cell proliferation; type: ADME, cell-based
MCF7 = assay: Cytotoxicity against human MCF7 cells assessed as inhibition of cell proliferation; type: ADME, cell-based
A549 = assay: Cytotoxicity against human A549 cells assessed as inhibition of cell proliferation; type: ADME, cell-based
AGS = assay: Cytotoxicity against human AGS cells assessed as inhibition of cell proliferation; type: ADME, cell-based
HepG2 = assay: Cytotoxicity against human HepG2 cells assessed as inhibition of cell proliferation; type: ADME, cell-based
in vitro = settings: human, HCT116 cells
Description: Cytotoxicity against human HCT116 cells assessed as inhibition of cell proliferation at 50 uM

SH-SY5Y [4] = assay: Neuroprotective activity against MPP-induced neurotoxicity in human SH-SY5Y cells assessed as increase in cell viability at 2.5 uM pretreated for 2 hrs before MPP challenge measured after 48 hrs relative to control; type: functional
SH-SY5Y [5] = assay: Neuroprotective activity against MPP-induced neurotoxicity in human SH-SY5Y cells assessed as decrease in cell viability at 5 uM pretreated for 2 hrs before MPP challenge measured after 48 hrs relative to control; type: functional
SH-SY5Y [6] = assay: Cytotoxicity against human SH-SY5Y cells assessed as cell viability at 5 uM after 48 hrs; type: cell-based

| inhibition at 50 µM (in vitro) [%] | Structure (SMILES) | Activity (SH-SY5Y [1]) | Activity (SH-SY5Y [2]) [%] | Activity (SH-SY5Y [3]) | IC50 (HCT-116) | IC50 (MCF7) | IC50 (A549) | IC50 (AGS) | IC50 (HepG2) | Activity (SH-SY5Y [4]) [%] | Activity (SH-SY5Y [5]) [%] | Activity (SH-SY5Y [6]) |
| --- | --- | --- | --- | --- | --- | --- | --- | --- | --- | --- | --- | --- |
|  | COc1cc(-c2ccccn2)nc2cnsc12 | Non-toxic | 80 | Dose-dependent effect | Not Active | Not Active | Not Active | Not Active | Not Active |  |  |  |
| 7.37 | COc1cc(-c2ccccn2)nc(C#N)c1SC | Non-toxic | 83.3 | Dose-dependent effect | Not Active | Not Active | Not Active | Not Active | Not Active |  |  |  |
|  | COc1cc(-c2ccccc2)nc(/C=N/O)c1SC [COPRISMYCIN A] | Non-toxic | 80.3 | Dose-dependent effect | Not Active | Not Active | Not Active | Not Active | Not Active |  |  |  |
|  | COc1cc(-c2ccccc2)nc(/C=N\O)c1SC [COPRISMYCIN B] | Non-toxic |  | Dose-dependent effect | Not Active | Not Active | Not Active | Not Active | Not Active | 88.4 | 69.8 | Toxic |
